Assay results reported in patent US20110150821A1, “METHODS AND CROSSLINKED POLYMER COMPOSITIONS FOR CARTILAGE REPAIR” (ANGIOTECH PHARMACEUTICALS (US), INC., priority 2004, published 2011).

How the values were obtained:
[1] = system: Chick Chorioallantoic Membrane (CAM) vasculature; experiment: Chick chorioallantoic membrane (CAM) angiogenesis assay; conditions: for INHIBITION/N: 48 hours exposure; for effect on angiogenesis: 48 hours after application to the CAM
[2] = cited from earlier work
[3] = within 48 hours, depending on concentration

| Structure (SMILES) | INHIBITION/N ([1]; 1 μg in methylcellulose (10 μl) disk on CAM) | INHIBITION/N ([1]; 5 μg in methylcellulose (10 μl) disk on CAM) | INHIBITION/N ([1]; 10 μg in methylcellulose (10 μl) disk on CAM) | effect on angiogenesis [1] | maximal avascular zone diameter [1, 3] | maximal avascular zone on the avascular gradient scale [1, 3] | solubility in water [2] |
| --- | --- | --- | --- | --- | --- | --- | --- |
| O=C1c2c(O)ccc(O)c2C(=O)c2c(NCCNCCO)ccc(NCCNCCO)c21 [mitoxantrone] | 18/24 | 21/24 | 18/22 | angiogenesis was inhibited | 6 mm | 3 | insoluble in water |
| CC(=O)O[C@H]1C(=O)[C@@]2(C)[C@H]([C@H](OC(=O)c3ccccc3)[C@]3(O)C[C@H](OC(=O)[C@H](O)[C@@H](NC(=O)c4ccccc4)c4ccccc4)C(C)=C1C3(C)C)[C@]1(OC(C)=O)CO[C@@H]1C[C@@H]2O [paclitaxel] |  |  |  | angiogenesis was inhibited |  | 3 |  |
